US8865909B2, “Anti-biofilm agents” (Yissum Research Development Company of the Hebrew …, priority 2008, dated 2014)

Columns and labels:
V. harveyi strains = experiment: Quorum sensing inhibition (luminescence), planktonic conditions; assay type: cell-based; details: BB120, BB170, BB886, BB721, JAF375, with AI-1, AI-2 or AI-0 spent medium
Method: Mutant strains of V. harveyi, which are impaired at different locations of the quorum sensing (QS) cascade (see, Table 1 hereinabove) were used for the QSI assays. Bacteria were grown to cell density of 1.5-2.5×10^9 CFU/ml (15-16 hours) in AB medium at 30° C. with constant shaking. The fresh cultures were then diluted 5000-fold in fresh AB medium containing TZD10, an exemplary ABF agent according to embodiments of the present invention, at concentrations of 0.02, 0.2, 20 and 200 μM. […]
The assay was conducted in white 96-well microtitraton plates with a clear bottom (NUNC, Denmark). Luminescence was measured continuously by a GENios reader (TECAN, Austria) every 30 minutes and the bacterial density was determined (O.D. 595 nm).
Each sample was tested in three separate biological experiments, each conducted in triplicate samples. The effect of the ABF agent was determined relatively to the endogenous level of luminescence expressed by V. harveyi BB120, BB721, BB170, BB886 and JAF375 relative to the OD, by calculating the area under the curve (AUC) between 3.5-7 hours, applying the trapezoid rule for AUC calculation.

V. harveyi biofilm = experiment: Quorum sensing (luminescence) in mature biofilm; assay type: cell-based; set-up: reduction of QS: dose or concentration left out as unconfirmed; details: for reduction of QSI: maximal tested concentration
Method: The working protocol for the biofilm disruption assays were conducted as follows. The tested V. harveyi strains (BB120, BB721, BB170, BB886) were grown to cell density of 1.5-2.5×10^9 CFU/ml (15-16 hrs) in AB medium at 30° C. with constant shaking and the suspension was diluted (1:5,000) in fresh AB medium. Aliquot of the suspension (200 μl) was added to each well in a white 96-well plate (NUNC) and incubated for 18 hours at 30° C. without shaking. The formed biofilm was carefully washed twice with saline. Fresh AB medium containing the exemplary ABF agent at the various tested concentrations, and either 10% (v/v) spent medium of V. harveyi MM30 (containing AI-1) or 10% (v/v) spent medium of V. harveyi BB152 (containing AI-2) were added, for further 18 hours of incubation as described above. Each sample was also tested without the spent medium as control to examine self induction. Positive and negative controls were included as described above. Each sample was tested in three separate biological experiments in triplicate samples. Luminescence was calculated as the AUC using the trapezoid rule.

Vero cells [1] = experiment: Vero cells detachment assay (96-well polystyrene plate, XTT); assay type: cell-based
Method: Vero cells (0.1 ml, 1.6×10^6 cells/ml) were plated in each well of flat 96-wells polystyrene plate (Nunc), and incubated overnight at 37° C. and 5% CO2. The cells were then incubated with various concentrations of the exemplary tested ABF agent TZD10. At the indicated time intervals, the cells were washed and re-suspended in fresh medium. XTT (2,3-bis-(2-methoxy-4-nitro-5-sulfophenyl)-2H-tetrazolium-5-carboxanilide) analysis was performed to determine the viability of the attached cells.

[2] = Solubility observed in the Vero cell assay wells; assay type: physicochemical; details: at a concentration of 100 μg/ml and above; crystals at bottom of well
Vero cells [3] = experiment: Vero cell viability assay (XTT); assay type: cell-based; details: 160 minutes
Method: The effect of TZD10 on the viability of Vero cells was detected by incubating the cells for 40 minutes with TZD10, and further incubation for 120 minutes with the XTT reagents in the same medium without washings, so that the total incubation time with TZD10 was 160 minutes. The cells were treated with TZD10 for 40 minutes without the XTT reagents that were then added for further 120 minutes incubation.

Vero cells [4] = experiment: Vero cells detachment from T-flasks; assay type: cell-based; details: 100 μg/ml TZD10 + 1.34 mM EDTA in PBS, 40 minutes
Method: Vero cells were grown on for 6 days in T-flask with DMEM+10% FCS+Hepes+Glutamine+Pen-strep (Beit HaEmek). The cells were then washed with PBS and incubated for 40 minutes with 100 μg/ml TZD10+1.34 mM (about 0.5 mg/ml) EDTA in PBS without calcium and magnesium (Beit HaEmek).

MDCK cells [5] = experiment: MDCK cells detachment assay; assay type: cell-based, canine
Method: (§1) Madine-Derby canine kidney cells (MDCK) are a non-cancerous, polarized epithelial cell line, used in the research of cell polarity mechanisms, and in the research of pathogen interactions with epithelial tissues. These cells produce monolayers in which cells are polarized and tightly connected to each other. The cells were treated with TZD10 for 40 minutes without the XTT reagents that were then added for further 120 minutes incubation. The influence of TZD10 on the attachment of MDCK cells was investigated using an identical method used for the Vero cells (the 96 well polystyrene plate method) as presented hereinabove.

MDCK cells [6] = experiment: MDCK cells viability assay (XTT); assay type: cell-based, canine; details: 40 minutes + 120 minutes with XTT
Method: as §1

SMILES: CCCCCCCCC/C=C1\SC(=O)NC1=O [TZD10, (Z)-5-decylidenethiazolidine-2,4-dione]
- effect on quorum sensing (luminescence) (V. harveyi strains): classic dose-response curve
- reduction of QSI activity (V. harveyi biofilm; AI-1 spent medium, 0.200 μM, BB886): 39%
- reduction of QSI activity (V. harveyi biofilm; AI-1 spent medium, 0.200 μM, wild-type): 62%
- reduction of QS activity (V. harveyi biofilm; AI-1 spent medium, 2 μM, BB886): 10%
- reduction of QS activity (V. harveyi biofilm; AI-1 spent medium, 2 μM, wild type BB120): 18%
- change in QSI (V. harveyi biofilm; AI-2 spent medium, 2 μM, BB170): minor increase
- reduction of QSI activity (V. harveyi biofilm; AI-2 spent medium, 2 μM, BB721 (LuxO null)): 25%
- change in QSI (V. harveyi biofilm; AI-2 spent medium, 2 μM, wild-type BB120): minor increase
- reduction of QSI (V. harveyi biofilm; AI-2 spent medium, BB170): 44%
- reduction of QSI (V. harveyi biofilm; AI-2 spent medium, BB721): 72%
- reduction of QSI (V. harveyi biofilm; AI-2 spent medium, wild-type): 35%
- QS inhibition versus concentration (V. harveyi biofilm; all tested strains, mature biofilm): positive dose response
- effect on QS (V. harveyi biofilm; no AI-1 nor AI-2, BB170, 2 μM): no effect
- reduction of QS (V. harveyi biofilm; no AI-1 nor AI-2, BB170, highest tested concentration): 62%
- reduction of QSI activity (V. harveyi biofilm; no AI-1 nor AI-2, BB721, 2 μM): 38%
- reduction of QSI activity (V. harveyi biofilm; no AI-1 nor AI-2, BB721, 20 μM): 63%
- reduction of QSI activity (V. harveyi biofilm; no AI-1 nor AI-2, BB721, 200 μM): 79%
- reduction of QSI activity (V. harveyi biofilm; no AI-1 nor AI-2, BB886, 2 μM): 30%
- reduction of QSI activity (V. harveyi biofilm; no AI-1 nor AI-2, BB886, 200 μM): 40%
- cell viability after detachment assay (Vero cells [1]; 50 μg/ml, overnight incubation): most of the cells are still viable
- cell detachment (Vero cells [1]; 100 μg/ml, 30 minutes): most of the cells were detached
- cell detachment (Vero cells [1]; 200 μg/ml, 5 minutes): most of the cells were detached
- solubility [2]: not completely soluble
- toxicity to Vero cells (Vero cells [3]; 125 μg/ml and above): partially cytotoxic
- toxicity to Vero cells (Vero cells [3]; up to 100 μg/ml): not toxic
- cell release from T-flask (Vero cells [4]): could be released from the flask by pipettetion
- cell detachment from the polystyrene dish (MDCK cells [5]): detached
- time of detachment compared with Vero cells (MDCK cells [5]): observed sooner than it has been observed with Vero cells
- toxicity compared with Vero cells (MDCK cells [6]): more toxic to MDCK cells than to Vero cells
